# Legend:
# [1] = molecular target: GSPT1 (Homo sapiens, UniProt P15170+Q96SW2); assay: HiBiT degradation assay, GSPT1, Procedure A; type: cell-based; set-up: HiBit-GSPT1 KI HEK293(LgBit) Cells; host or cells: HEK293(LgBit) knock-in cells; conditions: six hours
# Method in brief: (§1)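 Six-hour treatment at 37° C, ten doses between 10 μM and 0.005 μM, then HiBiT lytic luminescence. Fitted DC50 and Ymin.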
# [2] = molecular target: T1, CK1α (Homo sapiens, UniProt P48729+Q96SW2); assay: HiBiT degradation assay, CK1α, Procedure A; type: cell-based; conditions: six hours
# T1 construct: CSNK1A1-HiBit KI HEK293(LgBit) Cells; host or cells: HEK293(LgBit) knock-in cells
# Method in brief: as §1
# T1 sequence (P48729 whole entry): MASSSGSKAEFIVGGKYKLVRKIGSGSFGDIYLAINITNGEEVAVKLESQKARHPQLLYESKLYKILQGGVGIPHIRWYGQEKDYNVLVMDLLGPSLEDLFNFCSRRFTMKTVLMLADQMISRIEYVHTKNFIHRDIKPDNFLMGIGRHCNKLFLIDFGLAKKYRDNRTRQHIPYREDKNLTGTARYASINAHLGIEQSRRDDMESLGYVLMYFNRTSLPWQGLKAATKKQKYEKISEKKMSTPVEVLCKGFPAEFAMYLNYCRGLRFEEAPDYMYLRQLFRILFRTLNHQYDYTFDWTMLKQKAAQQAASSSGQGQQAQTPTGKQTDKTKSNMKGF
# T1 sequence (Q96SW2 whole entry): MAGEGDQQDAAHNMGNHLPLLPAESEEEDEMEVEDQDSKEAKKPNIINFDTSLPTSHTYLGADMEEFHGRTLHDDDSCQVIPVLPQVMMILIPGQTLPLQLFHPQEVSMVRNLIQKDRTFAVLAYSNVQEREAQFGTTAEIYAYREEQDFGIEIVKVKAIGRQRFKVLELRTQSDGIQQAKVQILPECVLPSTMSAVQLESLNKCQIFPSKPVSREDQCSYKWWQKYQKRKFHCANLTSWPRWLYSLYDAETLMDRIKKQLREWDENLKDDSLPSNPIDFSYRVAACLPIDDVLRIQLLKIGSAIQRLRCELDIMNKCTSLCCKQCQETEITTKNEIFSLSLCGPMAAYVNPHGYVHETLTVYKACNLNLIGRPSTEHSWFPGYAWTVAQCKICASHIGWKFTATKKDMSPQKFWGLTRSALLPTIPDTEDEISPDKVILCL
# T1 sequence (Q16531 whole entry partner): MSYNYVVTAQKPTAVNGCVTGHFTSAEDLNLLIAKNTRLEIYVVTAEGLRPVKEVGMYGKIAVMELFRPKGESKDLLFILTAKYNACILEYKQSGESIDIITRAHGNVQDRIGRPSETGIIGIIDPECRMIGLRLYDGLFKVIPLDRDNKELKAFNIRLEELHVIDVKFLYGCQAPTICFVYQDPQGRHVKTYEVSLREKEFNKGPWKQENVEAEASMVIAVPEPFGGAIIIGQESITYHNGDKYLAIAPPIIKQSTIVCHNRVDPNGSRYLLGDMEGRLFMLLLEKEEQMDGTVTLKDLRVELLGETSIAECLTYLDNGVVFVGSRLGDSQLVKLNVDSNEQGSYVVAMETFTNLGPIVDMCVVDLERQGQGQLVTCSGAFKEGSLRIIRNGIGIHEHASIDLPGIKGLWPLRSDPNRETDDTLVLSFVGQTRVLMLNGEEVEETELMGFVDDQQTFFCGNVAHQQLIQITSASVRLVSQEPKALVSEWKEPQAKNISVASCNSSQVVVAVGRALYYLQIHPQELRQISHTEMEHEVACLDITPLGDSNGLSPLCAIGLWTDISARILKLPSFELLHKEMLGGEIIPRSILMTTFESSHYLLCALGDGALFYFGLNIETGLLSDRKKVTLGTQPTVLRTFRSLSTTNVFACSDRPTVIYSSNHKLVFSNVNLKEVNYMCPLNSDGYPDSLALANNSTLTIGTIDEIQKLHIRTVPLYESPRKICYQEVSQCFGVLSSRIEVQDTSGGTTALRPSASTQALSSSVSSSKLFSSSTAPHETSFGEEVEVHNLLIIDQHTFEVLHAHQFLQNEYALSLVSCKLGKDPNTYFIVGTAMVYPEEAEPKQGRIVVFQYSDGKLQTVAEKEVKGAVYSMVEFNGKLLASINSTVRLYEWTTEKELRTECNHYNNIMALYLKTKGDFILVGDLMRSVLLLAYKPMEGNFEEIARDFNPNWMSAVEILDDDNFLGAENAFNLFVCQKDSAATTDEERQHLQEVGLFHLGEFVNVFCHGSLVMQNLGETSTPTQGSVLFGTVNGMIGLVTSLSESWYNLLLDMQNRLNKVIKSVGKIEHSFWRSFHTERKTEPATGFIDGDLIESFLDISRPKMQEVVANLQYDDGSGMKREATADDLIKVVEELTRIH
# Sequence of GSPT1 (P15170 whole entry): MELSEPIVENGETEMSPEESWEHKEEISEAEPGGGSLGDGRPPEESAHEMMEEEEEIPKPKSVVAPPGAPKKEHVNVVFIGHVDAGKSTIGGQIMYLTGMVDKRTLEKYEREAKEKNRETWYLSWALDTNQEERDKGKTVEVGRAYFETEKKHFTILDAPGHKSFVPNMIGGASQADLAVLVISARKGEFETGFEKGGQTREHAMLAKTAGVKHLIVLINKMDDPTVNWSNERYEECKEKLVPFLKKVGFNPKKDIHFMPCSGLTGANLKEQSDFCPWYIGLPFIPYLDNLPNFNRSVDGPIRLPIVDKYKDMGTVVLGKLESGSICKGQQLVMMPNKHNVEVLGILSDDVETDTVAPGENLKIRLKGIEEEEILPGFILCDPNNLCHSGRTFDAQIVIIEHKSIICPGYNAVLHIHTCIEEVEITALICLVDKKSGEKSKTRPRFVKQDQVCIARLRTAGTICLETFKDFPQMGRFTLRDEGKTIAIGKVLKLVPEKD
# Sequence of GSPT1 (Q96SW2 whole entry): as the sequence (Q96SW2 whole entry) above
# Sequence of GSPT1 (Q16531 whole entry partner): as the sequence (Q16531 whole entry partner) above
compound,measurement,setting,value
Cn1cnc(-c2ccc3c(c2)CN(C2CCC(=O)NC2=O)C3=O)c1-c1ccc2nccnc2c1 (stereo not shown) [Example 494],DC50,[1],≥ 25 nM
same,GSPT1 Ymin,[1],F (F = >75-100% remaining)
same,CK1α Ymin,[2],E (E = >25-75% remaining)
same,DC50,[2],≥ 25 nM
Cn1cnc(-c2ccc3c(c2)CN(C2CCC(=O)NC2=O)C3=O)c1-c1ccc2c(ccn2C)c1 (stereo not shown) [Example 496],DC50,[1],< 25 nM
same,GSPT1 Ymin,[1],E (E = >25-75% remaining)
same,CK1α Ymin,[2],C (C = 0-10% remaining)
same,DC50,[2],< 25 nM
Cn1cnc(-c2ccc3c(c2)CN(C2CCC(=O)NC2=O)C3=O)c1-c1cnn(CC(F)F)c1 (stereo not shown) [Example 497],DC50,[1],≥ 25 nM
same,GSPT1 Ymin,[1],F (F = >75-100% remaining)
same,CK1α Ymin,[2],D (D = >10- 25% remaining)
same,DC50,[2],≥ 25 nM
Cn1cnc(-c2ccc3c(c2)CN(C2CCC(=O)NC2=O)C3=O)c1-c1ccc2cnn(C)c2c1 (stereo not shown) [Example 498],DC50,[1],< 25 nM
same,GSPT1 Ymin,[1],F (F = >75-100% remaining)
same,CK1α Ymin,[2],D (D = >10- 25% remaining)
same,DC50,[2],< 25 nM
Cn1cnc(-c2ccc3c(c2)CN(C2CCC(=O)NC2=O)C3=O)c1-c1cnc2c(ccn2C)c1 (stereo not shown) [Example 499],DC50,[1],≥ 25 nM
same,GSPT1 Ymin,[1],F (F = >75-100% remaining)
same,CK1α Ymin,[2],E (E = >25-75% remaining)
same,DC50,[2],< 25 nM
Cn1cnc(-c2ccc3c(c2)CN(C2CCC(=O)NC2=O)C3=O)c1-c1ccc2ncn(C)c2c1 (stereo not shown) [Example 500],DC50,[1],≥ 25 nM
same,GSPT1 Ymin,[1],F (F = >75-100% remaining)
same,CK1α Ymin,[2],C (C = 0-10% remaining)
same,DC50,[2],< 25 nM
Cc1nc2ccc(-c3c(-c4ccc5c(c4)CN(C4CCC(=O)NC4=O)C5=O)ncn3C)cc2[nH]1 (stereo not shown) [Example 501],DC50,[1],≥ 25 nM
same,GSPT1 Ymin,[1],F (F = >75-100% remaining)
same,CK1α Ymin,[2],C (C = 0-10% remaining)
same,DC50,[2],< 25 nM
Cn1cnc(-c2ccc3c(c2)CN(C2CCC(=O)NC2=O)C3=O)c1-c1ccc2ncsc2c1 (stereo not shown) [Example 502],DC50,[1],< 25 nM
same,GSPT1 Ymin,[1],E (E = >25-75% remaining)
same,CK1α Ymin,[2],C (C = 0-10% remaining)
same,DC50,[2],< 25 nM
Cn1cnc(-c2ccc3c(c2)CN(C2CCC(=O)NC2=O)C3=O)c1-c1cnn(Cc2cccnc2)c1 (stereo not shown) [Example 503],DC50,[1],≥ 25 nM
same,GSPT1 Ymin,[1],F (F = >75-100% remaining)
same,CK1α Ymin,[2],E (E = >25-75% remaining)
same,DC50,[2],≥ 25 nM
Cn1cnc(-c2ccc3c(c2)CN(C2CCC(=O)NC2=O)C3=O)c1-c1cc[nH]n1 (stereo not shown) [Example 504],DC50,[1],≥ 25 nM
same,GSPT1 Ymin,[1],F (F = >75-100% remaining)
same,CK1α Ymin,[2],D (D = >10- 25% remaining)
same,DC50,[2],≥ 25 nM
Cn1ccc(-c2c(-c3ccc4c(c3)CN(C3CCC(=O)NC3=O)C4=O)ncn2C)n1 (stereo not shown) [Example 505],DC50,[1],< 25 nM
same,GSPT1 Ymin,[1],F (F = >75-100% remaining)
same,CK1α Ymin,[2],D (D = >10- 25% remaining)
same,DC50,[2],< 25 nM
Cn1cnc(-c2ccc3c(c2)CN(C2CCC(=O)NC2=O)C3=O)c1-c1cccs1 (stereo not shown) [Example 506],DC50,[1],< 25 nM
same,GSPT1 Ymin,[1],E (E = >25-75% remaining)
same,CK1α Ymin,[2],C (C = 0-10% remaining)
same,DC50,[2],< 25 nM
Cc1ncccc1-c1c(-c2ccc3c(c2)CN(C2CCC(=O)NC2=O)C3=O)ncn1C (stereo not shown) [Example 507],DC50,[1],≥ 25 nM
same,GSPT1 Ymin,[1],F (F = >75-100% remaining)
same,CK1α Ymin,[2],E (E = >25-75% remaining)
same,DC50,[2],< 25 nM
COc1ccsc1-c1c(-c2ccc3c(c2)CN(C2CCC(=O)NC2=O)C3=O)ncn1C (stereo not shown) [Example 508],DC50,[1],≥ 25 nM
same,GSPT1 Ymin,[1],F (F = >75-100% remaining)
same,CK1α Ymin,[2],D (D = >10- 25% remaining)
same,DC50,[2],< 25 nM
Cn1cnc(-c2ccc3c(c2)CN(C2CCC(=O)NC2=O)C3=O)c1-c1c[nH]c2ccccc12 (stereo not shown) [Example 509],DC50,[1],< 25 nM
same,GSPT1 Ymin,[1],E (E = >25-75% remaining)
same,CK1α Ymin,[2],D (D = >10- 25% remaining)
same,DC50,[2],< 25 nM
Cn1cnc(-c2ccc3c(c2)CN(C2CCC(=O)NC2=O)C3=O)c1-c1ccc2[nH]ncc2c1 (stereo not shown) [Example 510],DC50,[1],≥ 25 nM
same,GSPT1 Ymin,[1],E (E = >25-75% remaining)
same,CK1α Ymin,[2],C (C = 0-10% remaining)
same,DC50,[2],< 25 nM
Cn1cnc(-c2ccc3c(c2)CN(C2CCC(=O)NC2=O)C3=O)c1-c1cnn(C2CCC2)c1 (stereo not shown) [Example 511],DC50,[1],≥ 25 nM
same,GSPT1 Ymin,[1],F (F = >75-100% remaining)
same,CK1α Ymin,[2],D (D = >10- 25% remaining)
same,DC50,[2],< 25 nM
Cc1c[nH]c2cc(-c3c(-c4ccc5c(c4)CN(C4CCC(=O)NC4=O)C5=O)ncn3C)ccc12 (stereo not shown) [Example 512],DC50,[1],< 25 nM
same,GSPT1 Ymin,[1],F (F = >75-100% remaining)
same,CK1α Ymin,[2],C (C = 0-10% remaining)
same,DC50,[2],< 25 nM
Cn1cnc(-c2ccc3c(c2)CN(C2CCC(=O)NC2=O)C3=O)c1-c1ccc2c(cnn2C)c1 (stereo not shown) [Example 513],DC50,[1],≥ 25 nM
same,GSPT1 Ymin,[1],F (F = >75-100% remaining)
same,CK1α Ymin,[2],C (C = 0-10% remaining)
same,DC50,[2],< 25 nM
Cn1cnc(-c2ccc3c(c2)CN(C2CCC(=O)NC2=O)C3=O)c1-c1ccc2c(c1)CCCO2 (stereo not shown) [Example 514],DC50,[1],≥ 25 nM
same,GSPT1 Ymin,[1],E (E = >25-75% remaining)
same,CK1α Ymin,[2],C (C = 0-10% remaining)
same,DC50,[2],< 25 nM
Cn1cnc(-c2ccc3c(c2)CN(C2CCC(=O)NC2=O)C3=O)c1-c1ccc2sccc2c1 (stereo not shown) [Example 515],DC50,[1],< 25 nM
same,GSPT1 Ymin,[1],E (E = >25-75% remaining)
same,CK1α Ymin,[2],C (C = 0-10% remaining)
same,DC50,[2],< 25 nM
Cn1cnc(-c2ccc3c(c2)CN(C2CCC(=O)NC2=O)C3=O)c1-c1cccc(-n2cccn2)c1 (stereo not shown) [Example 516],DC50,[1],< 25 nM
same,GSPT1 Ymin,[1],F (F = >75-100% remaining)
same,CK1α Ymin,[2],D (D = >10- 25% remaining)
same,DC50,[2],< 25 nM
Cn1cnc(-c2ccc3c(c2)CN(C2CCC(=O)NC2=O)C3=O)c1-c1cnn(C2CCCCC2)c1 (stereo not shown) [Example 517],DC50,[1],< 25 nM
same,GSPT1 Ymin,[1],F (F = >75-100% remaining)
same,CK1α Ymin,[2],E (E = >25-75% remaining)
same,DC50,[2],≥ 25 nM
Cn1cnc(-c2ccc3c(c2)CN(C2CCC(=O)NC2=O)C3=O)c1-c1cncnc1 (stereo not shown) [Example 520],DC50,[1],≥ 25 nM
same,GSPT1 Ymin,[1],F (F = >75-100% remaining)
same,CK1α Ymin,[2],E (E = >25-75% remaining)
same,DC50,[2],≥ 25 nM
Cn1ccc(-c2c(-c3ccc4c(c3)CN(C3CCC(=O)NC3=O)C4=O)ncn2C)c1 (stereo not shown) [Example 521],DC50,[1],< 25 nM
same,GSPT1 Ymin,[1],E (E = >25-75% remaining)
same,CK1α Ymin,[2],C (C = 0-10% remaining)
same,DC50,[2],< 25 nM
Cn1cnc(-c2ccc3c(c2)CN(C2CCC(=O)NC2=O)C3=O)c1-c1ccc(N)nc1 (stereo not shown) [Example 522],DC50,[1],≥ 25 nM
same,GSPT1 Ymin,[1],E (E = >25-75% remaining)
same,CK1α Ymin,[2],D (D = >10- 25% remaining)
same,DC50,[2],≥ 25 nM
Cn1cnc(-c2ccc3c(c2)CN(C2CCC(=O)NC2=O)C3=O)c1-c1cncc(N)c1 (stereo not shown) [Example 523],DC50,[1],≥ 25 nM
same,GSPT1 Ymin,[1],E (E = >25-75% remaining)
same,CK1α Ymin,[2],D (D = >10- 25% remaining)
same,DC50,[2],≥ 25 nM
COc1ccncc1-c1c(-c2ccc3c(c2)CN(C2CCC(=O)NC2=O)C3=O)ncn1C (stereo not shown) [Example 524],DC50,[1],≥ 25 nM
same,GSPT1 Ymin,[1],F (F = >75-100% remaining)
same,CK1α Ymin,[2],E (E = >25-75% remaining)
same,DC50,[2],≥ 25 nM
Cn1cnc(-c2ccc3c(c2)CN(C2CCC(=O)NC2=O)C3=O)c1-c1ccc2cc[nH]c2c1 (stereo not shown) [Example 525],DC50,[1],< 25 nM
same,GSPT1 Ymin,[1],C (C = 0-10% remaining)
same,CK1α Ymin,[2],C (C = 0-10% remaining)
same,DC50,[2],< 25 nM
Cn1cnc(-c2ccc3c(c2)CN(C2CCC(=O)NC2=O)C3=O)c1-c1cccc2cc[nH]c12 (stereo not shown) [Example 526],DC50,[1],< 25 nM
same,GSPT1 Ymin,[1],F (F = >75-100% remaining)
same,CK1α Ymin,[2],E (E = >25-75% remaining)
same,DC50,[2],< 25 nM
Cn1cnc(-c2ccc3c(c2)CN(C2CCC(=O)NC2=O)C3=O)c1-c1cc2ccccc2[nH]1 (stereo not shown) [Example 527],DC50,[1],< 25 nM
same,GSPT1 Ymin,[1],E (E = >25-75% remaining)
same,CK1α Ymin,[2],D (D = >10- 25% remaining)
same,DC50,[2],< 25 nM
Cn1cnc(-c2ccc3c(c2)CN(C2CCC(=O)NC2=O)C3=O)c1-c1ccc2nccn2c1 (stereo not shown) [Example 528],DC50,[1],≥ 25 nM
same,GSPT1 Ymin,[1],E (E = >25-75% remaining)
same,CK1α Ymin,[2],D (D = >10- 25% remaining)
same,DC50,[2],≥ 25 nM
Cn1cnc(-c2ccc3c(c2)CN(C2CCC(=O)NC2=O)C3=O)c1-c1ccc2ccn(C)c2c1 (stereo not shown) [Example 529],DC50,[1],< 25 nM
same,GSPT1 Ymin,[1],F (F = >75-100% remaining)
same,CK1α Ymin,[2],D (D = >10- 25% remaining)
same,DC50,[2],< 25 nM
Cn1cnc(-c2ccc3c(c2)CN(C2CCC(=O)NC2=O)C3=O)c1-c1ccn(-c2ccc(F)cc2)n1 (stereo not shown) [Example 530],DC50,[1],< 25 nM
same,GSPT1 Ymin,[1],F (F = >75-100% remaining)
same,CK1α Ymin,[2],E (E = >25-75% remaining)
same,DC50,[2],< 25 nM
Cn1cnc(-c2ccc3c(c2)CN(C2CCC(=O)NC2=O)C3=O)c1-c1cn[nH]c1 (stereo not shown) [Example 531],DC50,[1],≥ 25 nM
same,GSPT1 Ymin,[1],E (E = >25-75% remaining)
same,CK1α Ymin,[2],C (C = 0-10% remaining)
same,DC50,[2],≥ 25 nM
"Cn1cc(-c2ccc3c(c2)CN(C2CCC(=O)NC2=O)C3=O)nc1C1CCOCC1 (stereo not shown) [Example 532, 3-(5-(1-methyl-2-(tetrahydro-2H-pyran-4-yl)-1H-imidazol-4-yl)-1-oxoisoindolin-2-yl)piperidine-2,6-dione]",DC50,[1],≥ 25 nM
same,GSPT1 Ymin,[1],F (F = >75-100% remaining)
same,CK1α Ymin,[2],D (D = >10- 25% remaining)
same,DC50,[2],< 25 nM
Cn1nc(-c2ccc3c(c2)CN(C2CCC(=O)NC2=O)C3=O)cc1-c1cncnc1 (stereo not shown) [Example 533],DC50,[1],≥ 25 nM
same,GSPT1 Ymin,[1],F (F = >75-100% remaining)
same,CK1α Ymin,[2],E (E = >25-75% remaining)
same,DC50,[2],≥ 25 nM
